Experiments:
p53 = conditions: patients with Actinic Keratoses; under imiquimod therapy; cited from earlier work
[1] = tested on: p53 expression in Caco-2 cells; assay: p53 mRNA expression in Caco-2 cells by quantitative real-time RT-PCR; format: cell-based
Method: Imiquimod was dissolved in dimethyl sulfoxide (DMSO). Stock concentration was 10 mg/ml. From these stocks stepwise dilutions were prepared. […] The final concentration of DMSO was 0.1%.
The colorectal adenocarcinoma cell line Caco-2 was obtained from ATCC [American Type Culture Collection], Wesel, Germany. The cells were plated in 24-well plates (BD Bioscience, Heidelberg, Germany). The cells were cultured in DMEM supplemented with 10% heat-inactivated foetal bovine serum and 10% non essential amino acids in a humidified atmosphere containing 5% CO2 at 37° C. When confluent, the cells were washed and resuspended in serum-free Dulbecco's Modified Eagle Medium (DMEM) at 10^6 cells ml^−1. […]
RNA was prepared from frozen lysates using RNeasy, Qiagen (Hilden, Germany). One-tube Reverse Transcriptase-Polymerase Chain Reaction (RT-PCR) was performed using Quantitect Probe RT-PCR Kit from QIAGEN (Hilden, Germany). Expression of p53 was determined in relation to beta-actin by real time RT-PCR using SYBR Green assays on an ABI Prism 7900. […] Quantity of mRNA was calculated using […] method. For each RT-PCR the threshold cycle (CT) was determined, being defined as the cycle at which the fluorescence exceeds 10 times the standard deviation of the mean baseline emission for cycles 3 to 10. β-actin was used as a housekeeping gene to normalize mRNA levels: Ct (Parameter)−Ct (β-actin)=ΔCt (Parameter). […]

MC-26 colon carcinoma = conditions: mice; oral treatment; cited from earlier work

CC(C)Cn1cnc2c(N)nc3ccccc3c21 [imiquimod, 1-(2-methylpropyl)-1H-imidazo[4,5-c]quinolin-4-amine]
gene expression for p53 (p53): no differences in gene expression for p53 were found
statistical significance of increase in p53 mRNA levels ([1]; 10 and 100 μM imiquimod, one-way ANOVA with Dunnett's post-hoc): reached statistical significance
p53 mRNA expression (relative to beta-actin and vehicle control) ([1]; concentrations up to 100 μM, FIG. 1): increases p53 mRNA expression dose dependently
development of MC-26 colon carcinoma (MC-26 colon carcinoma): significantly inhibited the development of MC-26 colon carcinoma

— patent publication US8008319B2, “Treatment of colorectal polyps with imidazoquinoline derivatives” (Meda Pharma GmbH & Co. KG, priority 2008, dated 2011)
